Reference: patent EP0426029A1, “Injectable formulation for lipophilic drugs” (ABBOTT LABORATORIES, priority 1989, dated 1991)

Tested on: mice
Test: Mouse scratch test (irritation/pain at the injection site)
Type: in vivo
Method: A scratch test was conducted in mice to measure the response to the sensation of irritation, i.e., the pain associated with an injection. Formulations were administered subcutaneously at a dose of 5 ml/kg to groups of mice (10/group) weighing 20 to 40 g each. The number of times that each mouse scratched the injection site was then counted for exactly five minutes.

In the case of `CC[C@H]1OC(=O)[C@H](C)[C@@H](O[C@H]2C[C@@](C)(OC)[C@@H](O)[C@H](C)O2)[C@H](C)[C@@H](O[C@@H]2O[C@H](C)C[C@H](N(C)C)[C@H]2O)[C@](C)(OC)C[C@@H](C)C(=O)[C@H](C)[C@@H](O)[C@]1(C)O` [Clarithromycin Lactobionate, Clarithromycin lactobionate], the “No. of Scratches” value (Table I, subcutaneous, 5 ml/kg, mice (10/group), scratches of injection site counted for five minutes, 5 mg/ml in clarithromycin) is reported as 22.0 ± 7.2 and the “NO. OF SCRATCHES” value (Table II, mouse scratch test, all solutions 5 mg/ml clarithromycin, pH as shown in formulation) is reported as 15.1 ± 4.4.
